Measured values published in US5833946A, “Dissemination of fungal infections: animal model and method of prophylaxis” (priority 1995, dated 1998).
Like-named read-outs stand apart in the source and are kept apart here. Non-standard residues stand in square brackets, D forms with d. Residues, ends and D or L forms follow the SMILES beside them. *: point of attachment. Sta = CC(C)C[C@H](N)[C@@H](O)CC(=O)O; Isovaleryl = CC(C)CC(=O)*

Experiments:
[1] = test system: peak II secretory protease of C. albicans ATCC 32354; assay: Dns-ISEVNLDAEFR-amide cleavage by mono-Q peak II protease (HPLC, fluorimetric); format: biochemical
Method: (§1) The proteases secreted by C. albicans ATCC 32354 also hydrolyzed the fluorescent peptide Dns-Ile-Ser-Glu-Val-Asn-Leu-Asp-Ala-Glu-Phe-Arg-amide (SEQ ID NO: 4), abbreviated Dns-ISEVNLDAEFR-amide. Aliquots of the protease-containing fractions recovered from mono-Q chromatography described in Example 1 (2 to 10 μl) were incubated with 30 μM final concentration of the fluorescent substrate Dns-ISEVNLDAEFR-amide at 37° C. in 60 μl 50 mM sodium citrate buffer of pH 4.4 for 15 minutes, after which reactions were terminated by addition of 50 μM pepstatin A in 33% v/v methanol to 10 μM final concentration, and set aside for HPLC analysis. […] Unconverted Dns-ISEVNLDAEFR-amide (RT=5.55 min) and fluorescent products eluting at 4.2 min (Dns-Ile-Ser-Glu-Val-Asn-Leu (SEQ ID NO: 5), and 3.0 min (unidentified), were resolved and detected fluorimetrically.
(§2) The secretory aspartic proteases produced by other pathogenic C. albicans strains and Candida sp. are inhibitable by pepstatin A and are therefore of the aspartyl class. To determine if the peak I, II, or III protease activities secreted by ATCC 32354 were also of the aspartyl class, their susceptibility to inhibition by pepstatin A was determined. […]

C. albicans ATCC 32354 [2] = assay: Growth of C. albicans in culture (A660nm); format: cell-based
Method: To study the effects of pepstatin A on growth of C. albicans, 0.1 ml of an overnight C. albicans culture was used to inoculate 10 ml cultures of either 1) YCB/BSA, or 2) a YD medium (0.2% yeast extract, 2% glucose) that contained 40 mM ammonium chloride. Pepstatin A was included in the cultures at final concentrations ranging between 0 and 10 μM (administered from a 50 μM aqueous stock). Growth of cultures at 30° C. was monitored by following A660nm. The growth of ATCC 32354 in YCB/BSA was inhibited about 90% by 2 μM pepstatin A (table II). This effect of pepstatin was fungistatic as resuspension of arrested cells in fermentation medium devoid of pepstatin A restored cell growth. […] Since ammonium chloride both removes dependence on, and suppresses the production of the secretory acid proteases, the mechanism of pepstatin inhibition action is likely to involve protease inhibition.

C. albicans ATCC 32354 [3] = assay: Survival after lethal airway (intranasal) challenge in immunosuppressed mice; format: in vivo; conditions: for ED50: Candida albicans, ATCC32354, ip, i.p. daily days 0-4, neutropenic mice, intranasal challenge, read-out: EC50 (survival, airway challenge)
Description: (§3) To examine the role of the protease under conditions in which the challenge dose of C. albicans first has to cross the airway epithelium before it can disseminate, the following procedure was developed. To both mimic the immunosuppressed patient state and increase susceptibility of the test animals to C. albicans, mice were rendered neutropenic by treatment with cyclophosphamide, and received concurrent ciprofloxacin treatment to block opportunistic infection by endogenous gram negative flora.
(§4) Challenge inoculum was prepared by streaking Candida albicans (ATCC 32354) onto Sabouraud dextrose agar from a frozen glycerol stock and incubating overnight at 37° C. Five hours before challenge, the culture was re-streaked onto four Sabouraud dextrose agar slants and incubated (4 h. 37° C.). The culture was then washed from the agar slants with sterile saline, resuspended in fresh saline to achieve an A660nm of 0.2, and kept on ice until used. Fifty μl of a 10^-4 dilution of this challenge stock was plated to determine retrospectively the exact challenge dose in c.f.u. Female Swiss Webster mice (Charles River Breeding Laboratories, Inc., Wilmington, Mass., approx. 23 g, ten mice per group) received 125 mgKg^-1 cyclophosphamide i.p. in 0.2 ml of saline on days -5 and -3, 0, 2 and 4 of the study. On day 0, mice were anesthetized with 80 mgKg^-1 sodium pentobarbital i.p. and challenged intranasally with either 2.5×10^5 c.f.u. in 50 μl of saline or 50 μl of saline only (toxicity controls). On each of days 1 to 4 mice also received 50 mgKg^-1 Ciprofloxacin (i.p. in WFI/5% (w/v) glucose) to prevent bacterial infection in the immunocompromised mice. On days 0 to 4, groups of mice (n=10) received one of the following daily treatments (0.1 ml i.p.): saline, amphotericin B (0.1 to 1.0 mgKg^-1); and pepstatin A (0.06 to 6.0 mgKg^-1). Pepstatin A was dissolved in DMSO at 13.8 mgml^-1 and diluted 1:10 in saline for the 6 mgKg^-1 dose. Lower doses were diluted in normal saline serially from the 6 mgKg^-1 dose. Stock amphotericin B (5 mg/ml in WFI) was diluted in WFI containing 5% glucose. Treatment with drug on day zero was performed three hours prior to airway challenge with C. albicans. Survival was monitored for fifteen days following challenge. Toxicity controls were weighed daily over the duration of treatment. Animals from parallel groups (n=10) of mice were sacrificed at various stages and used to determine organ burdens and histopathology. Organ burdens were determined in parallel in 3 mice from parallel groups that were sacrificed on days 2, 4, and 17. Mice were anesthetized with sodium pentobarbital (80 mgKg^-1), bled by cardiac puncture, and then given a lethal dose of sodium pentobarbital. The kidneys, spleen, liver, and lungs were removed, weighed, and homogenized in 10 ml sterile PBS. Each organ homogenate (including heart blood) was serially diluted, plated on Sabauroud dextrose agar and incubated overnight at 37° C. Resulting colonies were counted to derive c.f.u./gram wet weight of organ.

C. albicans ATCC 32354 [4] = assay: Mortality after intravenous challenge; format: in vivo, mice
Method: Female Swiss Webster mice (n=10 per treatment group) were challenged by tail vein injection with 10^6 c.f.u. Candida albicans ATCC 32354 in 0.2 ml saline and mortality was monitored over the following 14 days. Three hr prior to challenge with candida, and on days 1 to 5 post challenge with candida, mice also received one of the following compounds (i.p. in saline): saline alone; 0.6 mgKg^-1 pepstatin A, or 1 mgKg^-1 amphotericin B. Challenge inoculum containing C. albicans was prepared in the same manner as used for airway challenge experiments except that it was adjusted to a final A660nm of 2.0.

C. albicans [5] = assay: Control experiments with ciprofloxacin alone (data not shown); conditions: ciprofloxacin by itself
Description: as §3

C. albicans ATCC 32354 [6] = assay: Formation of hyphae in culture (Gram stain, microscopy); format: cell-based; conditions: YCB/BSA, 48 hours, 2 μM and above
Method: Aliquots of cultures were removed after 48 hours, heat fixed on slides, and Gram stained (VWR Scientific, Inc., Boston, Mass.).

[7] = test system: peak I secretory protease of C. albicans ATCC 32354; assay: Dns-ISEVNLDAEFR-amide cleavage by mono-Q peak I protease (HPLC, fluorimetric); format: biochemical; conditions: peak I enzyme
Method: as §1, §2

C. albicans ATCC 32354 [8] = assay: Organ burdens (c.f.u.) after intranasal challenge in immunosuppressed mice; format: in vivo; set-up: C. albicans, kidney / C. albicans, lungs: scale not given here
Method: as §4

[9] = test system: peak III secretory protease of C. albicans ATCC 32354; assay: Dns-ISEVNLDAEFR-amide cleavage by mono-Q peak III protease (HPLC, fluorimetric); format: biochemical; conditions: peak III enzyme, read-out: I.C.50 Pepstatin
Method: as §1, §2

C. albicans [10] = conditions: administered prior to i.v. challenge with C. albicans; cited from earlier work
C. albicans ATCC 32354 [11] = assay: Histopathology of lung sections after airway challenge; format: in vivo, mice; conditions: 0.06 and 0.6 mg/Kg^-1
Method: For histopathology, mice from above described groups (two mice per group) were sacrificed on days 2 and 4 by administration of a lethal dose of sodium pentobarbitol. The lungs, liver, kidneys, and spleen were removed intact, embedded in paraffin, sectioned (5 μm), and stained with ammoniacal silver to visualize the Candida. Slides were stained by immersing in 4% periodic acid for 5 minutes, rinsing in distilled water five times, then immersing in a solution of ammoniacal silver (0.1% silver nitrate, 0.02% lithium hydroxide monohydrate) that had been heated by microwave (420 W for 1 min). Slides were microwaved in this solution for one minute then allowed to remain in the hot solution for one more minute before rinsing four times in distilled water and toning in 0.2% gold chloride for thirty seconds. Slides were then rinsed twice in distilled water, placed in 2% sodium thiosulfate for thirty seconds, then rinsed three times and dehydrated through graded alcohols. Finally, slides were cleared in 3-4 changes of xylene and mounted with Permount.

[12] = 0.6 mg Kg^-1, 4 days post challenge

## 1{92S,4S,5S)-5-[(2S)-3-(tert-Butylsulphonyl)-2-(1-naphthylmethyl)propanoyl]-(2R)N-(tert-butoxycarbonyl)-2-amino-2-[2-(1,3-dithiolan-2-yl)]ethanoyl]amino-6-cyclohexyl-4-hydroxy-2-(1-methyl)ethyl-hexanoyl}-s-isoleucinyl-2-yridylamide [compound X]
[1]; peak II protease, read-out: I.C.50, in vitro activity of the peak II protease
  IC50: 110 nM
C. albicans ATCC 32354 [2]; YCB/BSA
  effect on growth of C. albicans in YCB/BSA: blocked growth
C. albicans ATCC 32354 [2]; YCB/BSA, 168 hours in culture, 10 μM (no compound 3.13)
  A660 nm: 0.26
C. albicans ATCC 32354 [3]; 0.1 mgKg^-1
  protection against lethal airway challenge: Complete protection

## C[C@@H]1[C@H](O)[C@@H](C)/C=C/C=C/C=C/C=C/C=C/C=C/C=C/[C@H](O[C@@H]2O[C@H](C)[C@@H](O)[C@H](N)[C@@H]2O)C[C@@H]2O[C@](O)(C[C@@H](O)C[C@@H](O)[C@H](O)CC[C@@H](O)C[C@@H](O)CC(=O)O[C@H]1C)C[C@H](O)[C@H]2C(=O)O [amphotericin B]
C. albicans ATCC 32354 [4]; 1 mgKg^-1 i.p., 3 hr prior and days 1 to 5
  survival rate after 14 days, i.v. challenge: 70%
C. albicans ATCC 32354 [3]; 1 mgKg^-1 i.p. daily days 0-4, first dose 3 h before challenge
  protection against lethal airway challenge: complete protection
C. albicans ATCC 32354 [3]
  ED50: ~0.1 mg/kg

## O=C(O)c1cn(C2CC2)c2cc(N3CCNCC3)c(F)cc2c1=O [ciprofloxacin]
C. albicans [5]
  effect on C. albicans in vitro or in vivo: no effect

## CC(C)CC(=O)N[C@H](C(=O)N[C@H](C(=O)N[C@@H](CC(C)C)[C@@H](O)CC(=O)N[C@@H](C)C(=O)N[C@@H](CC(C)C)[C@@H](O)CC(=O)O)C(C)C)C(C)C [pepstatin A] (Isovaleryl-VV[Sta]A[Sta]-OH)
C. albicans ATCC 32354 [6]
  formation of hyphae in cultures: inhibited the formation of hyphae
C. albicans ATCC 32354 [4]; 0.6 mgKg^-1 i.p.
  survival time post i.v. challenge: did not survive past day two
C. albicans ATCC 32354 [4]; 0.6 mgKg^-1 i.p., 3 hr prior and days 1 to 5
  protective effect, classical i.v. challenge protocol: no protective effect
[7]; product eluting at 3.0 min, 15 min pre-incubation, 1 hr reaction, pH 4.4, read-out: I.C.50 Pepstatin
  IC50: 9 nM
[7]; product eluting at 4.2 min, N. I. = no inhibition
  I.C.50 Pepstatin: N. I.
[1]; peak II enzyme, product eluting at 4.2 min, read-out: I.C.50 Pepstatin
  IC50: 28 nM
C. albicans ATCC 32354 [8]; 0.06 mg Kg^-1, 4 days post challenge (0 dose 39 ± 18.4)
  C. albicans, kidney: 0.67 ± 0.15 c. f. u. g^-1 homogenized tiss
C. albicans ATCC 32354 [8]; 0.06 mg Kg^-1, 4 days post challenge (0 dose 4,540 ± 2,160)
  C. albicans, lungs: 0.58 ± 0.39 c. f. u. g^-1 homogenized tiss
C. albicans ATCC 32354 [8]; [12]
  C. albicans, kidney: 0.49 ± 0.22 c. f. u. g^-1 homogenized tiss
  C. albicans, lungs: 0.13 ± 0.19 c. f. u. g^-1 homogenized tiss
C. albicans ATCC 32354 [8]; all doses
  c.f.u. recovered from the kidneys: a small number of c.f.u.'s were recovered
C. albicans ATCC 32354 [8]; intranasal challenge
  c.f.u. remaining in the lung tissue: dramatically reduced
  dissemination to the spleen and liver: completely blocked dissemination
C. albicans ATCC 32354 [2]; Candida albicans, ATCC32354, YCB/BSA, 2 μM
  inhibition at 2 µM: ~90%
C. albicans ATCC 32354 [2]; YCB/BSA
  nature of growth effect (resuspension without inhibitor restored growth): fungistatic
C. albicans ATCC 32354 [2]; YCB/BSA, 145 hours in culture, 2.0 μM (control 1.97)
  A660 nm: 0.18
C. albicans ATCC 32354 [2]; YCB/BSA, 145 hours in culture, 10.0 μM (control 1.97)
  A660 nm: 0.17
C. albicans ATCC 32354 [2]; YD + 40 mM ammonium chloride, up to 10 μM
  inhibitory effect on growth in YD containing ammonium chloride: no significant inhibitory effects
C. albicans ATCC 32354 [2]; YD + NH4Cl, 145 hours in culture, 2.0 μM (control 2.97)
  A660 nm: 2.99
C. albicans ATCC 32354 [2]; YD + NH4Cl, 145 hours in culture, 10.0 μM (control 2.97)
  A660 nm: 3.20
C. albicans ATCC 32354 [3]; 0.6 mgKg^-1 i.p. daily days 0-4, airway challenge
  survival: 100%
C. albicans ATCC 32354 [3]
  ED50: ~0.06 mg/kg
C. albicans ATCC 32354 [3]; airway challenge, dose-dependent, 0.06 to 0.6 mgKg^-1
  protective effect upon pretreating mice: strong protective effect
[9]; product eluting at 3.0 min
  IC50: 29 nM
[9]; product eluting at 4.2 min
  IC50: 36 nM
C. albicans [10]
  reduced mortality in a statistically significant fashion (neither/nor = did not): neither
C. albicans ATCC 32354 [11]
  growth of C. albicans and hyphae formation in the lungs (histopathology): inhibited both the growth of C. albicans and hyphae formation
